Data taken from US10829458B2 (Araxes Pharma LLC, priority 2015, dated 2020).

Molecular target: T1, KRAS G12C 1-169, his-tagged protein, GDP-loaded (Homo sapiens, UniProt P01116, G12C)
T1 construct: KRAS G12C 1-169, his-tagged protein, GDP-loaded
Assay: Biochemical assay: covalent modification of KRAS G12C measured by mass spectrometry (RapidFire/TOF or Q-Exactive)
Details: covalent binding to KRAS G12C
How it was run: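 GDP-loaded his-tagged KRAS G12C 1-169 at 2 μM in 20 mM Hepes, 150 mM NaCl, 1 mM MgCl2 incubated at room temperature with compound (10, 30 or 100 μM final, 2% DMSO) for 30 min, 2 h or 24 h, then quenched with formic acid. Intact-protein LC-MS (RapidFire/TOF or Q-Exactive) with deconvolution quantified modified versus unmodified protein.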

SMILES | Binding % (compounds of structure (I)) | also measured
C=CC(=O)N1CCN(c2ncnc3c(F)c(-c4c(O)cccc4F)c(Cl)cc23)CC12CC2 [III-10, 1-(7-(6-chloro-8-fluoro-7-(2-fluoro-6-hydroxy-phenyl)quinazolin-4-yl)-4,7-diazaspiro [2.5]octan-4-yl)prop-2-en-1-one] |  | Binding % (compounds of structure (III)): + (+ indicates binding activity up to 50%)
C=CC(=O)N1CCN(c2nc(OCC3OCCO3)nc3c(F)c(-c4c(O)cccc4F)c(Cl)cc23)CC1 [Example I-163, 1-(4-(2-((1,3-dioxolan-2-yl)methoxy)-6-chloro-8-fluoro-7-(2-fluoro-6-hydroxyphenyl)quinazolin-4-yl)piperazin-1-yl) prop-2-en-1-one] | +++ (+++ indicates binding activity greater than 90%) | 
C=CC(=O)N1CCN(c2nc(NC3CCN(C(C)C)CC3)nc3c(F)c(-c4cc(O)cc5ccccc45)c(Cl)cc23)CC1 [Example I-77, 1-(4-(6-chloro-8-fluoro-7-(3-hydroxy-naphthalen-1-yl)-2-(1-isopropyl-piperidin-4-ylamino)quinazolin-4-yl)piperazin-1-yl)prop-2-en-1-one] | +++ (+++ indicates binding activity greater than 90%) | 
CN(C)C/C=C/C(=O)N1CCN(c2nc(OCCN3CCOCC3)nc3c(F)c(-c4c(O)cccc4F)c(Cl)cc23)CC1 [Example I-74, (E)-1-(4-(6-chloro-8-fluoro-7-(2-fluoro-6-hydroxyphenyl)-2-(2-morpholino-ethoxy)quinazolin-4-yl)piperazin-1-yl)-4-(dimethyl-amino)but-2-en-1-one] | +++ (+++ indicates binding activity greater than 90%) | 
C=CC(=O)N1CCN(c2ncnc3c(F)c(-c4c(O)ccc(F)c4F)c(Cl)cc23)CC1 [II-3, 1-(4-(6-chloro-7-(2,3-difluoro-6-hydroxyphenyl)-8-fluoroquinazolin-4-yl)piperazin-1-yl)prop-2-en-1-one] |  | Binding % (compounds of structure (II)): +++ (+++ indicates binding activity of 75% or greater)
C=CC(=O)N1CCN(c2nc(NC3CCN(C4CC4)CC3)nc3c(F)c(-c4c(O)cccc4F)c(Cl)cc23)CC1 [Example I-72, 1-(4-(6-chloro-2-(1-cyclopropyl-piperidin-4-ylamino)-8-fluoro-7-(2-fluoro-6-hydroxyphenyl)quinazolin-4-yl)piperazin-1-yl) prop-2-en-1-one] | +++ (+++ indicates binding activity greater than 90%) | 
C=CC(=O)N1CCN(c2nc(OC3CCN(CC(F)(F)F)C3)nc3c(F)c(-c4c(O)cccc4F)c(Cl)cc23)CC1 (stereo not shown) [Example I-26, 1-(4-(6-chloro-8-fluoro-7-(2-fluoro-6-hydroxyphenyl)-2-(1-(2,2,2-trifluoroethyl)pyrrolidin-3-yloxy)quinazolin-4-yl)piperazin-1-yl)prop-2-en-1-one] | +++ (+++ indicates binding activity greater than 90%) | 
C=CC(=O)N1CCN(c2nc(NC3CCN(C4CC4)CC3)nc3c(F)c(-c4c(C)ccc5[nH]ncc45)c(Cl)cc23)CC1 [Example I-20, 1-(4-(6-chloro-2-(1-cyclopropyl-piperidin-4-ylamino)-8-fluoro-7-(5-methyl-1H-indazol-4-yl)quinazolin-4-yl)piperazin-1-yl)prop-2-en-1-one] | +++ (+++ indicates binding activity greater than 90%) | 
C=CC(=O)N1CCN(c2nc(OCc3ccc(C#N)nc3)nc3c(F)c(-c4c(O)cccc4F)c(Cl)cc23)CC1 [Example I-129, 5-((4-(4-acryloyl-piperazin-1-yl)-6-chloro-8-fluoro-7-(2-fluoro-6-hydroxyphenyl)quinazolin-2-yloxy)methyl) picolinonitrile] | +++ (+++ indicates binding activity greater than 90%) | 
C=CC(=O)N1CCN(c2nc(NC3CCN(C4CC4)CC3)nc3c(F)c(-c4c(C)cccc4O)c(Cl)cc23)CC1 [Example I-80, 1-(4-(6-chloro-2-(1-cyclopropyl-piperidin-4-ylamino)-8-fluoro-7-(2-hydroxy-6-methylphenyl)quinazolin-4-yl)piperazin-1-yl) prop-2-en-1-one] | +++ (+++ indicates binding activity greater than 90%) | 
C=CC(=O)N1CCN(c2ncnc3c(F)c(-c4c(O)cccc4F)c(Cl)cc23)[C@@H](C(C)C)C1 [III-34, 1-((3S)-4-(6-chloro-8-fluoro-7-(2-fluoro-6-hydroxy-phenyl)quinazolin-4-yl)-3-isopropyl-piperazin-1-yl)prop-2-en-1-one] |  | Binding % (compounds of structure (III)): + (+ indicates binding activity up to 50%)
C=CC(=O)Nc1ncc(-c2ncnc3c(F)c(-c4c(O)cccc4F)c(Cl)cc23)s1 [II-13, N-(5-(6-chloro-8-fluoro-7-(2-fluoro-6-hydroxyphenyl)quinazolin-4-yl)thiazol-2-yl)acrylamide] |  | Binding % (compounds of structure (II)): ++ (++ indicates binding activity greater than 50% and less than 75%)
C=CC(=O)N1CCN(c2nc(OCCc3ccccn3)nc3c(F)c(-c4cc(O)cc5ccccc45)c(Cl)cc23)CC1 [Example I-44, 1-(4-(6-chloro-8-fluoro-7-(3-hydroxy-naphthalen-1-yl)-2-(2-(pyridin-2-yl)ethoxy)quinazolin-4-yl)piperazin-1-yl) prop-2-en-1-one] | +++ (+++ indicates binding activity greater than 90%) | 
C=CC(=O)N1CCN(c2nc(OCCc3cccc(C)n3)nc3c(F)c(-c4c(O)cccc4F)c(Cl)cc23)CC1 [Example I-89, 1-(4-(6-chloro-8-fluoro-7-(2-fluoro-6-hydroxyphenyl)-2-(2-(6-methyl-pyridin-2-yl)ethoxy)quinazolin-4-yl)piperazin-1-yl)prop-2-en-1-one] | +++ (+++ indicates binding activity greater than 90%) | 
C=CC(=O)N1CCN(c2nc(N3CC(N(C)C)C3)nc3c(F)c(-c4c(O)cccc4F)c(Cl)cc23)CC1 (atropisomer, axis not shown) [Example I-117, (R)-1-(4-(6-chloro-2-(3-(dimethylamino)azetidin-1-yl)-8-fluoro-7-(2-fluoro-6-hydroxyphenyl)quinazolin-4-yl)piperazin-1-yl) prop-2-en-1-one] | + (+ indicates binding activity up to 50%) | 
C=CC(=O)N1CCN(c2nc(C#N)nc3c(F)c(-c4c(C)ccc5[nH]ncc45)c(Cl)cc23)CC1 [Example I-11, 4-(4-acryloyl-piperazin-1-yl)-6-chloro-8-fluoro-7-(5-methyl-1H-indazol-4-yl)quinazoline-2-carbonitrile] | +++ (+++ indicates binding activity greater than 90%) | 
C=CC(=O)N1CCN(c2nc(N3CC4(CCOC4)C3)nc3c(F)c(-c4c(C)ccc5[nH]ncc45)c(Cl)cc23)CC1 [Example I-156, 1-(4-(6-chloro-8-fluoro-7-(5-methyl-1H-indazol-4-yl)-2-(6-oxa-2-azaspiro[3,4]octan-2-yl)quinazolin-4-yl)piperazin-1-yl) prop-2-en-1-one] | +++ (+++ indicates binding activity greater than 90%) | 
C=CC(=O)N1CCN(c2nc(N3CC(N4CCN(C)CC4)C3)nc3c(F)c(-c4c(O)cccc4F)c(Cl)cc23)CC1 [Example I-41, 1-(4-(6-chloro-8-fluoro-7-(2-fluoro-6-hydroxyphenyl)-2-(3-(4-methyl-piperazin-1-yl)azetidin-1-yl)quinazolin-4-yl)piperazin-1-yl)prop-2-en-1-one] | +++ (+++ indicates binding activity greater than 90%) | 
C=CC(=O)Nc1cc(-c2ncnc3c(F)c(-c4c(O)cccc4F)c(Cl)cc23)ccn1 [II-12, N-(4-(6-chloro-8-fluoro-7-(2-fluoro-6-hydroxyphenyl)quinazolin-4-yl)pyridin-2-yl)acrylamide] |  | Binding % (compounds of structure (II)): + (+ indicates binding activity up to 50%)
